Data as given in ChEMBL document CHEMBL4619799, “Mechanistic Insight into Antiretroviral Potency of 2'-Deoxy-2'-β-fluoro-4'-azidocytidine (FNC) with a Long-Lasting Effect on HIV-1 Prevention” (J Med Chem, 2020).
Active and inactive are the calls of the source. The calls are words filed in the database; no cut-off is given here.

Columns and labels:
[1] = Tmax in monkey PBMC assessed as FNC-TP level at 1 mg/kg, po administered as single dose by LC-MS/MS analysis; type: ADME, organism-based, Macaca mulatta; conditions: rhesus monkey, in vivo
[2] = Tmax in monkey PBMC assessed as FNC-TP level at 6 mg/kg, po administered as single dose by LC-MS/MS analysis; type: ADME, organism-based, Macaca mulatta; conditions: rhesus monkey, in vivo
[3] = tested on: Human immunodeficiency virus 1; assay: Antiviral activity against HIV1 infected patient assessed as […] in CD4-positive T cell count at 4 mg administered daily for 7 days measured 24 hrs post-last dose by immunostaining based flow cytometry analysis; type: functional, organism-based
[4] = tested on: Human immunodeficiency virus 1; assay: Antiviral activity against VSVG pseudotyped HIV1 infected in HEK293 cells preincubated for 3 hrs followed by compound washout and subsequent compound redosing and measured after 72 hrs by luciferase reporter gene based assay; type: functional, organism-based; conditions: Human immunodeficiency virus 1, HEK293
[5] = Cmax in monkey plasma at 1 mg/kg, po administered as single dose by LC-MS/MS analysis; type: ADME, organism-based, Macaca mulatta; set-up: dose 1 mg/kg, route oral; conditions: rhesus monkey
[6] = Cmax in monkey plasma at 6 mg/kg, po administered as single dose measured after 24 hrs by LC-MS/MS analysis; type: ADME, organism-based, Macaca mulatta; set-up: dose 6 mg/kg, route oral; conditions: rhesus monkey
[7] = AUC (0 to 24 hrs) in monkey PBMC assessed as FNC-TP level at 1 mg/kg, po administered as single dose by LC-MS/MS analysis; type: ADME, organism-based, Macaca mulatta; set-up: time < 24 hr, dose 1 mg/kg, route oral; conditions: rhesus monkey, in vivo
[8] = Cmax in monkey plasma at 6 mg/kg, po administered as single dose by LC-MS/MS analysis; type: ADME, organism-based, Macaca mulatta; set-up: dose 6 mg/kg, route oral; conditions: rhesus monkey
[9] = tested on: Human immunodeficiency virus 1; assay: Antiviral activity against JRFL pseudotyped HIV1 infected in human Hut/CCR5 cells preincubated for 3 hrs followed by compound washout and subsequent compound redosing and measured after 72 hrs by luciferase reporter gene based assay; type: functional, organism-based; conditions: Human immunodeficiency virus 1, Hut/CCR5
[10] = biological target: Virion infectivity factor (Human immunodeficiency virus type 1 group M subtype B (isolate NY5)(HIV-1)) (UniProt P12504); assay: Inhibition of HIV1 HA-tagged Vif expressed in HEK293T cells co-expressing eGFP-tagged pcDNA-APOBEC3G assessed as reduction in Vif-mediated A3G degradation at 10 nM measured after 48 hrs by flow cytometry; type: cell-based; conditions: Human immunodeficiency virus 1, HEK-293T
[11] = Cytotoxicity against HEK293 cells assessed as cell viability by MTT assay; type: cell-based; conditions: human
[12] = Tmax in Sprague-Dawley rat thymus at 0.5 mg/kg, po administered as single dose via gavage by LC-MS/MS analysis; type: ADME, organism-based
[13] = biological target: Virion infectivity factor (Human immunodeficiency virus type 1 group M subtype B (isolate NY5)(HIV-1)) (UniProt P12504); assay: Inhibition of HIV1 HA-tagged Vif expressed in HEK293T cells co-expressing Myc-tagged pcDNA-APOBEC3G and pcDNA-ubiquitin-His assessed as reduction in Vif-mediated A3G polyubiquitination at 3.5 to 35 nM measured after 48 hrs by Western blot analysis; type: cell-based; conditions: Human immunodeficiency virus 1, HEK-293T
[14] = Effect on HLA-DR surface expression in IL2-induced human PBMC-derived CD4-positive T cells at 100 nM measured after 48 hrs by immunostaining based flow cytometry; type: ADME; conditions: 0.1 µM
[15] = Effect on HLA-DR surface expression in IL2-induced human PBMC-derived CD14-positive monocytes at 100 nM measured after 48 hrs by immunostaining based flow cytometry; type: ADME; conditions: 0.1 µM
[16] = Elimination half life in monkey PBMC assessed as FNC-TP level at 1 mg/kg, po administered as single dose by LC-MS/MS analysis; type: ADME, organism-based, Macaca mulatta; conditions: rhesus monkey, in vivo
[17] = Drug metabolism in human PBMC-derived CD4-positive T cells assessed as FNC-TP formation at 350 nM measured after 4 hrs by LC-MS/MS analysis; type: ADME; conditions: 0.35 µM
[18] = Effect on CD69 surface expression in IL2-induced human PBMC-derived CD14-positive monocytes at 100 nM measured after 48 hrs by immunostaining based flow cytometry; type: ADME; conditions: 0.1 µM
[19] = Effect on CD25 surface expression in IL2-induced human PBMC-derived CD14-positive monocytes at 100 nM measured after 48 hrs by immunostaining based flow cytometry; type: ADME; conditions: 0.1 µM
[20] = Binding affinity to HIV1 Vif and CBFbeta-ELOB-ELOC complex (unknown origin) by CM5 chip based assay
[21] = Binding affinity to HIV1 Vif and CBFbeta-ELOB-ELOC complex (unknown origin) assessed as compound-complex adduct formation measured after 150 secs by CM5 chip based assay
[22] = tested on: Human immunodeficiency virus 1; assay: Synergistic antiviral activity against JRFL pseudotyped HIV1 infected in human Hut/CCR5 cells assessed as combination index in presence of rilpivirine by luciferase reporter gene based assay; type: functional
Homo sapiens = assay: In vivo inhibition of Vif-induced A3G degradation in HIV1 infected patient assessed as increase in A3G expression in CD4-positive T cells at 4 mg administered daily for 7 days measured 24 hrs post-last dose by Western blot analysis; type: functional, organism-based
[23] = Cytotoxicity against human Hut/CCR5 cells assessed as reduction in cell viability at 0.1 to 10 nM measured after 120 hrs by MTT assay; type: cell-based; conditions: 0.01 µM
[24] = Selectivity index, ratio of CC50 for human Hut/CCR5 cells to EC50 for antiviral activity against JRFL pseudotyped HIV1 infected in human Hut/CCR5 cells; type: toxicity, cell-based; conditions: read-out: Ratio CC50/EC50
[25] = Drug metabolism in human PBMC-derived CD14-positive monocytes assessed as FNC-TP formation at 350 nM measured after 4 hrs by LC-MS/MS analysis; type: ADME; conditions: 0.35 µM
[26] = Cytotoxicity against human Hut/CCR5 cells assessed as reduction in cell viability measured after 72 hrs by MTT assay; type: cell-based
[27] = AUC (0 to 24 hrs) in monkey at 6 mg/kg, po administered as single dose by LC-MS/MS analysis; type: ADME, organism-based, Macaca mulatta; set-up: dose 6 mg/kg, time < 24 hr, route oral; conditions: rhesus monkey, in vivo
[28] = tested on: Human immunodeficiency virus 1; assay: Antiviral activity against JRFL pseudotyped HIV1 infected in human Hut/CCR5 cells assessed as time needed to reach 50% reduction of virus infection at 10 nM incubated with cells for 4 hrs prior to compound washout followed by viral infection and measured after 72 hrs by luciferase reporter gene assay; type: functional
[29] = tested on: Human immunodeficiency virus 1; assay: Antiviral activity against JRFL pseudotyped HIV1 infected in human Hut/CCR5 cells assessed as time needed to reach 50% reduction of virus infection at 0.1 nM incubated with cells for 4 hrs prior to compound washout followed by viral infection and measured after 72 hrs by luciferase reporter gene assay; type: functional
[30] = AUC (0 to 24 hrs) in monkey plasma at 1 mg/kg, po administered as single dose by LC-MS/MS analysis; type: ADME, organism-based, Macaca mulatta; set-up: time < 24 hr, dose 1 mg/kg, route oral; conditions: rhesus monkey
[31] = biological target: Virion infectivity factor (Human immunodeficiency virus type 1 group M subtype B (isolate NY5)(HIV-1)) (UniProt P12504); assay: Inhibition of HIV1 HA-tagged Vif expressed in HEK293T cells co-expressing Myc-tagged pcDNA-APOBEC3G assessed as reduction in Vif-mediated A3G degradation at 10 nM measured after 48 hrs by Western blot analysis; type: cell-based; conditions: Human immunodeficiency virus 1, HEK-293T
[32] = tested on: Human immunodeficiency virus 1; assay: Antiviral activity against HIV1 infected patient assessed as reduction in plasma viremia at 4 mg administered daily for 7 days measured 24 hrs post-last dose by qRT-PCR analysis; type: functional, organism-based
[33] = tested on: Human immunodeficiency virus 1; assay: Synergistic antiviral activity against JRFL pseudotyped HIV1 infected in human Hut/CCR5 cells assessed as combination index in presence of dolutegravir by luciferase reporter gene based assay; type: functional

Chain of Virion infectivity factor (Human immunodeficiency virus type 1 group M subtype B (isolate NY5)(HIV-1)) (P12504 whole entry): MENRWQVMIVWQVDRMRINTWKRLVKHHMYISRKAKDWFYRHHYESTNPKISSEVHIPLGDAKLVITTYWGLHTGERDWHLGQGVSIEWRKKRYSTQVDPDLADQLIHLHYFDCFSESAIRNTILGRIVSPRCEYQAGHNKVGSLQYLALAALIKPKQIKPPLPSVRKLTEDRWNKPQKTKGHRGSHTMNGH

[N-]=[N+]=N[C@]1(CO)O[C@@H](n2ccc(N)nc2=O)[C@@H](F)[C@@H]1O [RO-0622]
Tmax [1]: 6 h
Tmax [2]: 6 h
Activity [3]: inactive
EC50 [4]: 0.063 nM
Cmax [5]: 196 nM
Cmax [6]: 6.5 nM
AUC [7]: 0.09933 µM·h
Cmax [8]: 2070 nM
EC50 [9]: 0.0136 nM
inhibition [10]: Active
CC50 [11]: ≥ 25000 nM
Tmax [12]: 7 to 12 h
inhibition [13]: Active
Activity [14]: Non-Toxic
Activity [15]: Non-Toxic
beta t1/2 [16]: 133.15 h
Drug metabolism [17]: Metabolite_Detected
Activity [18]: Non-Toxic
Activity [19]: Non-Toxic
Kd [20]: 87 nM
Activity [21]: 36%
CI50 [22]: 0.113
CI75 [22]: 0.0902
CI90 [22]: 0.07208
CI95 [22]: 0.06194
inhibition (Homo sapiens): Active
Activity [23]: Non-Toxic
selectivity ratio [24]: 25000
Drug metabolism [25]: Metabolite_Detected
CC50 at 72 h [26]: 340 nM
AUC(0-t) at 24 h [27]: 7.58 µM·h
Time [28]: 123.06 to 123.1 h
Time [29]: 68.6 to 68.63 h
AUC(0-t) at 24 h [30]: 0.499 µM·h
inhibition [31]: Active
Activity [32]: Active
CI50 [33]: 0.01704
CI75 [33]: 0.01929
CI90 [33]: 0.02209
CI95 [33]: 0.0244
